The nature of data set [1]: Equilibrium solubility of API and excipients in spray solvents (TGA of saturated supernatant). How it is done: The solutions were centrifuged to remove excess solids. A total of 50 µL of the supernatant was pipetted into an aluminum pan and placed into a Thermogravimetric Analyzer (Discovery TGA, TA Instruments, New Castle, DE, USA). The sample was heated to 130 °C at a ramp rate of 50 °C/min and then held isothermal for 10 min to allow all of the solvent to evaporate. The final mass of the sample (of the known 50 µL volume) was recorded and used to determine the solubility in mg/mL. Samples were measured in triplicate.
Solubility screening was performed on the three small molecule APIs and the L-leucine excipient in water, 90/10 methanol/water and 80/20 ethanol/water by weight. These solvent ratios were chosen to maximize the solubility of L-leucine and API. Additional details on solubility and formulation selection can be found in the Supplementary Information.

In the next data set the target is T1, human recombinant VEGF (Homo sapiens, UniProt P15692).
T1 construct: purchased R&D Systems
T1 sequence (P15692 1-191 isoform P15692-4): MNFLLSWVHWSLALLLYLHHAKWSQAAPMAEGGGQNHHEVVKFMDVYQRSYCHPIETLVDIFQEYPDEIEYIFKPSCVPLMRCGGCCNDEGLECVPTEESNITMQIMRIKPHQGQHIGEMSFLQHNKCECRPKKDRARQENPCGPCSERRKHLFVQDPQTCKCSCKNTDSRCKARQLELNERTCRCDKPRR
Kind of data set: VEGF binding competitive ELISA assay. The following applies: compared with BEV stock positive control. The method, then:
Spray-dried powders or as-received API were reconstituted to a 4 mg/mL active in the buffered saline and allowed to dissolve for 60 min. […] Standards were prepared according to the kit protocol.
After incubation, 50 µL of the assay diluent was added to each of the wells of the supplied plate. A total of 200 µL each of the sample (in triplicate) and standards were added to respective wells and incubated for 2 h at ambient temperature. The plate was washed three times with 400 µL of the kit’s wash buffer, then 200 µL of the VEGF-conjugate was added. The plate was incubated for another 2 h, then washed again three times, as previously. A 1:1 mixture of the kit’s color reagent A and B were mixed, then 200 µL was added to each well. After a 30 min incubation at ambient temperature, 50 µL of stop solution was added to each well. The absorbances were read on an M5e plate reader (Molecular Devices, San Jose, CA, USA) using a 450 nm detection wavelength and 540 nm as the blank wavelength for baseline correction. The quantified concentration of unbound VEGF in pg/mL was reported. All samples were analyzed in triplicate.
Briefly, reconstituted simul-spray powders were incubated with VEGF protein in the assay buffer. Next, the quantity of unbound VEGF in the solution was quantified by a commercially available VEGF ELISA assay kit.
(An ELISA detects its analyte on a solid surface through an enzyme-linked reagent.)

Data set [2] in a line: Chemical stability in solution. It counts as physicochemical. The settings on record: bevacizumab and cisplatin in the same aqueous solution.
The conditions of data set [3]: ligand exchange; cited from earlier work.
Setting [4] is: water, thermodynamic from solid, Solubility, mg/mL in Water.
[5] abbreviates: organic solvent or mixture, thermodynamic from solid, Solubility, mg/mL in 90/10 Methanol/Water.

Values after ≈ are worked out from the molar mass of the structure shown.

Take `C#Cc1cccc(Nc2ncnc3cc(OCCOC)c(OCCOC)cc23)c1` [ERL, erlotinib]: the solubility (as a rule, the concentration that dissolves in the medium under given conditions) in data set [1] (80/20 ethanol/water by weight, organic solvent or mixture, thermodynamic from solid, Solubility, mg/mL in 80/20 Ethanol/Water, 80/20 ethanol/water by mass) was below 1000 µg/mL; in data set [1] (90/10 methanol/water by weight, organic solvent or mixture, thermodynamic from solid, Solubility, mg/mL in 90/10 Methanol/Water, 90/10 methanol/water by mass) it was 25000 µg/mL (≈ 63.5 mM); in data set [1] (water, Solubility in water at neutral pH, water at neutral pH), below 100 µg/mL; in data set [1] (setting [4]) it was below 1000 µg/mL. Besides, at human recombinant VEGF, the “VEGF inhibition (in words)” value is recorded as “do not inhibit VEGF measurably”.
Take `CC(C)C[C@H](N)C(=O)O` [L-Leucine, L-leucine]: the “Solubility, mg/mL in 80/20 Ethanol/Water” value in data set [1] came out at 2.0 mg/mL (≈ 15.2 mM). In addition, the solubility in data set [1] (organic solvent or mixture, thermodynamic from solid, Solubility, mg/mL in 80/20 Ethanol/Water) was 1700 µg/mL (≈ 13 mM); in data set [1] (setting [5]), 2500 µg/mL (≈ 19.1 mM); in data set [1] (setting [4]), 21000 µg/mL (≈ 160 mM).
Turning to `CC(=O)O[C@H]1C(=O)[C@@]2(C)[C@H]([C@H](OC(=O)c3ccccc3)[C@]3(O)C[C@H](OC(=O)[C@H](O)[C@@H](NC(=O)c4ccccc4)c4ccccc4)C(C)=C1C3(C)C)[C@]1(OC(C)=O)CO[C@@H]1C[C@@H]2O` [PTX, paclitaxel], in data set [1], the “Solubility in water at neutral pH” value is “sparingly soluble”. Moreover, the solubility in data set [1] (setting [5]) and in data set [1] (setting [4]) was below 1000 µg/mL in each case. The “VEGF inhibition (in words)” value at human recombinant VEGF is “do not inhibit VEGF measurably”.
`N.N.[Cl][Pt][Cl]` [CP, cisplatin]: the “VEGF inhibition (in words)” value on human recombinant VEGF is on record as “do not inhibit VEGF measurably”. For the same compound, the “Chemical stability when co-dissolved” value in data set [2] was “not chemically stable when co-dissolved in the same solution”. Besides, the “Chemical stability in aqueous solution” value in data set [3] is reported as “not chemically stable in an aqueous solution for longer than a few hours”.
